Test results reported in ChEMBL document CHEMBL3885861, “Open TG-GATES”.

Species on record: Rattus norvegicus
Experiment: Open TG-GATES - Regimen: Daily Repeat
Type: toxicity, organism-based, Sprague-Dawley
Parameters: regimen Daily Repeat, gender Male, age 6 weeks
Settings: in vivo, po, 50 mg/kg, route gavage, dose level High; for APTT / Bas / Eos / Fbg / Hb / Ht / Lym / MCH / MCHC / MCV / Mono / Neu / PT / Plat / RBC / Ret / WBC: tissue Blood
[1] = 72 h, tissue Plasma, time 3 day

`C=C(C)[C@H]1Cc2c(ccc3c2O[C@@H]2COc4cc(OC)c(OC)cc4[C@@H]2C3=O)O1` [ROTENONE] showed a TERMINAL_BW (72 h, time 3 day) of 199.2 g, an APTT (72 h, time 3 day) of 16.3 s and a Bas (72 h, time 3 day) of 0%. It also gave an Eos (72 h, time 3 day) of 0.8%, a Fbg (72 h, time 3 day) of 198.6 mg/dL and a Hb (72 h, time 3 day) of 13.7 g/dL. For the same molecule, the Ht (72 h, time 3 day) was 41.6%, the Lym (72 h, time 3 day) was 72.4% and the MCH (72 h, time 3 day) was 21 pg. The MCHC (72 h, time 3 day) was 32.9%, the MCV (72 h, time 3 day) was 64 fL and the Mono (72 h, time 3 day) was 8%. The Neu (72 h, time 3 day) was 18.8%, the PT (72 h, time 3 day) was 12.2 s and the Plat (72 h, time 3 day) was 126.4 x10_4/uL. For the same molecule, the RBC (72 h, time 3 day) was 649.4 x10_4/ul, the Ret (72 h, time 3 day) was 3.3% and the WBC (72 h, time 3 day) was 91.2 x10_2/uL. It also gave an LIVER (72 h, tissue Liver, time 3 day) of 9.9 g, an A/G [1] of 2.4 and an ALP [1] of 1100.4 IU/L. The ALT [1] was 25.4 IU/L, the AST [1] was 65.4 IU/L and the BUN [1] was 16 mg/dL. It also gave a CRE [1] of 0.4 mg/dL, a Ca [1] of 11.8 mg/dL and a Cl [1] of 106.6 meq/L. The DBIL [1] was 0.01 mg/dL, the GLC [1] was 191.2 mg/dL and the IP [1] was 7.5 mg/dL. The K [1] was 4.2 meq/L, the LDH [1] was 93.8 IU/L and the Na [1] was 142.8 meq/L. It also gave a PL [1] of 136.4 mg/dL, an RALB [1] of 3.9 g/dL and a TBIL [1] of 0.034 mg/dL. The TC [1] was 82.6 mg/dL, the TG [1] was 52.6 mg/dL and the TP [1] was 5.5 g/dL. For the same molecule, the gamma-GTP [1] was 0.8 IU/L, the TERMINAL_BW ([…], time 7 day) was 230.8 g and the TERMINAL_BW ([…], time 14 day) was 251.7 g. It also gave a TERMINAL_BW ([…], time 28 day) of 288.8 g, an APTT ([…], time 7 day) of 16.5 s and a Bas ([…], time 7 day) of 0%. For the same molecule, the Eos ([…], time 7 day) was 0.6%, the Fbg ([…], time 7 day) was 196.4 mg/dL and the Hb ([…], time 7 day) was 13.5 g/dL. The Ht ([…], time 7 day) was 41.1%, the Lym ([…], time 7 day) was 74.8% and the MCH ([…], time 7 day) was 21 pg. It also gave an MCHC ([…], time 7 day) of 32.9%, an MCV ([…], time 7 day) of 63.9 fL and a Mono ([…], time 7 day) of 6%. For the same molecule, the Neu ([…], time 7 day) was 18.6%, the PT ([…], time 7 day) was 12 s and the Plat ([…], time 7 day) was 117.6 x10_4/uL. The RBC ([…], time 7 day) was 643.6 x10_4/ul, the Ret ([…], time 7 day) was 4.2% and the WBC ([…], time 7 day) was 95.8 x10_2/uL. For the same molecule, the APTT ([…], time 14 day) was 16.5 s, the Bas ([…], time 14 day) was 0% and the Eos ([…], time 14 day) was 0.8%. It also gave a Fbg ([…], time 14 day) of 190.2 mg/dL, a Hb ([…], time 14 day) of 14.7 g/dL and a Ht ([…], time 14 day) of 44.3%. For the same molecule, the Lym ([…], time 14 day) was 69.4%, the MCH ([…], time 14 day) was 20 pg and the MCHC ([…], time 14 day) was 33.1%. For the same molecule, the MCV ([…], time 14 day) was 60.5 fL, the Mono ([…], time 14 day) was 7.4% and the Neu ([…], time 14 day) was 22.4%. It also gave a PT ([…], time 14 day) of 12.6 s, a Plat ([…], time 14 day) of 128.2 x10_4/uL and an RBC ([…], time 14 day) of 733.8 x10_4/ul. The Ret ([…], time 14 day) was 3.6%, the WBC ([…], time 14 day) was 98.4 x10_2/uL and the APTT ([…], time 28 day) was 19.4 s. It also gave a Bas ([…], time 28 day) of 0% and an Eos ([…], time 28 day) of 0.6%.
